ChEMBL document CHEMBL1201862, “PubChem BioAssay data set” (2004)
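In this assay, cells in 96-well plates receive the compound at five concentrations for 48 hours. Endpoints are linearly interpolated between the surrounding concentrations. GI50 = concentration required for 50% inhibition of growth.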 Activity calls are given as the source filed them. No stated cut-off is given here; in the data, active = GI50 up to about 1.1 µM and inactive = higher.

What was measured:
Assay in all cases: NCI-60 cell line screen, 48 h
[1] = system: UACC-257
[2] = system: 786-0
[3] = system: M14
[4] = system: A549
[5] = system: NCI-H522
[6] = system: HOP-92
[7] = system: LOX IMVI
[8] = system: UO-31
[9] = system: SW-620
[10] = system: MCF7
[11] = system: HCT-116
[12] = system: HCC 2998
[13] = system: OVCAR-5
[14] = system: HL-60
[15] = system: SN12C
[16] = system: SR
[17] = system: IGROV-1
[18] = system: Malme-3M
[19] = system: MDA-N
[20] = system: SF-539

SMILES | GI50 [1] | GI50 [2] | GI50 [3] | GI50 [4] | GI50 [5] | GI50 [6] | GI50 [7] | GI50 [8] | GI50 [9] | GI50 [10] | GI50 [11] | GI50 [12] | GI50 [13] | GI50 [14] | GI50 [15] | GI50 [16] | GI50 [17] | GI50 [18] | GI50 [19] | GI50 [20]
Cc1cc(=O)oc2cc(OCC(O)COC(C)C)ccc12 (centres undefined) | > 100 µM (inactive) | > 100 µM (inactive) | > 100 µM (inactive) | > 100 µM (inactive) | > 100 µM (inactive) | 80.9 µM (inactive) | 88.3 µM (inactive) | > 100 µM (inactive) | 99.1 µM (inactive) | > 100 µM (inactive) | > 100 µM (inactive) | > 100 µM (inactive) | > 100 µM (inactive) | > 100 µM (inactive) | > 100 µM (inactive) | > 100 µM (inactive) | > 100 µM (inactive) | > 100 µM (inactive) | 91.4 µM (inactive) | –
CC(=O)O[C@H]1CC[C@H]2[C@@H]3CC[C@H]4Nc5c(cnn5S(C)(=O)=O)C[C@]4(C)[C@H]3CC[C@]12C | – | – | 91.4 µM (inactive) | – | 70 µM (inactive) | 98.9 µM (inactive) | – | 88.1 µM (inactive) | – | 28.6 µM (inactive) | 46.8 µM (inactive) | 56.4 µM (inactive) | > 100 µM (inactive) | > 100 µM (inactive) | > 100 µM (inactive) | > 100 µM (inactive) | > 100 µM (inactive) | 38.7 µM (inactive) | > 100 µM (inactive) | –
SC1=NC2=C(CSC/C2=C\c2cccc(Br)c2)C(c2cccc(Br)c2)N1 (centres undefined) | > 100 µM (inactive) | 66.8 µM (inactive) | 46.2 µM (inactive) | > 100 µM (inactive) | > 100 µM (inactive) | – | > 100 µM (inactive) | – | > 100 µM (inactive) | 64.1 µM (inactive) | 43.7 µM (inactive) | > 100 µM (inactive) | > 100 µM (inactive) | > 100 µM (inactive) | > 100 µM (inactive) | – | > 100 µM (inactive) | > 100 µM (inactive) | 68.2 µM (inactive) | > 100 µM (inactive)
Cc1cn(C2CC(O)C(CO[Si](C)(C)C(C)(C)C)OC2OC(C)C)c(=O)[nH]c1=O (centres undefined) | 34.6 µM (inactive) | 16.6 µM (inactive) | 34.9 µM (inactive) | 34.1 µM (inactive) | 30.2 µM (inactive) | 32.2 µM (inactive) | 18.5 µM (inactive) | 44.8 µM (inactive) | 49.4 µM (inactive) | 22.4 µM (inactive) | 16.5 µM (inactive) | 24.5 µM (inactive) | > 100 µM (inactive) | – | 39.6 µM (inactive) | 31.2 µM (inactive) | 29.8 µM (inactive) | 44.5 µM (inactive) | 36.1 µM (inactive) | 21.9 µM (inactive)
O=S1(=O)C[C@@H](NCc2ccccc2)[C@H](NCc2ccccc2)C1 | > 100 µM (inactive) | – | 53.5 µM (inactive) | > 100 µM (inactive) | 73.6 µM (inactive) | > 100 µM (inactive) | > 100 µM (inactive) | > 100 µM (inactive) | > 100 µM (inactive) | > 100 µM (inactive) | > 100 µM (inactive) | > 100 µM (inactive) | > 100 µM (inactive) | – | > 100 µM (inactive) | > 100 µM (inactive) | 26.2 µM (inactive) | > 100 µM (inactive) | > 100 µM (inactive) | > 100 µM (inactive)
CN1C2CC(=O)CC1[C@H](O)[C@@H]2O | > 100 µM (inactive) | – | > 100 µM (inactive) | – | – | – | > 100 µM (inactive) | > 100 µM (inactive) | > 100 µM (inactive) | > 100 µM (inactive) | > 100 µM (inactive) | > 100 µM (inactive) | – | > 100 µM (inactive) | > 100 µM (inactive) | > 100 µM (inactive) | – | > 100 µM (inactive) | > 100 µM (inactive) | –
CCOC(=O)C(=NN(C)c1ncccc1N)C(=O)OCC | 24.4 µM (inactive) | 29.6 µM (inactive) | 32.5 µM (inactive) | > 100 µM (inactive) | – | 23.3 µM (inactive) | 18.3 µM (inactive) | 38.8 µM (inactive) | 27.6 µM (inactive) | 20.5 µM (inactive) | 26.4 µM (inactive) | – | – | 15.1 µM (inactive) | 24.7 µM (inactive) | 36.2 µM (inactive) | 61 µM (inactive) | 29.1 µM (inactive) | 34.8 µM (inactive) | 22.9 µM (inactive)
Cc1ccc(C)c(NC(=O)/C(=N\N)C(c2cnc3ccc([N+](=O)[O-])cc3n2)[N+](=O)[O-])c1 (centres undefined) | > 100 µM (inactive) | > 100 µM (inactive) | > 100 µM (inactive) | 92.7 µM (inactive) | 19.7 µM (inactive) | > 100 µM (inactive) | 56.4 µM (inactive) | 23.6 µM (inactive) | > 100 µM (inactive) | 60.8 µM (inactive) | > 100 µM (inactive) | 69.8 µM (inactive) | > 100 µM (inactive) | 52 µM (inactive) | > 100 µM (inactive) | 74.1 µM (inactive) | 51.9 µM (inactive) | 66.8 µM (inactive) | > 100 µM (inactive) | > 100 µM (inactive)
CCOC(=O)N1CCN(c2ccc3c(C)cc(C)nc3n2)CC1 | > 100 µM (inactive) | > 100 µM (inactive) | > 100 µM (inactive) | > 100 µM (inactive) | > 100 µM (inactive) | > 100 µM (inactive) | > 100 µM (inactive) | > 100 µM (inactive) | > 100 µM (inactive) | > 100 µM (inactive) | > 100 µM (inactive) | > 100 µM (inactive) | > 100 µM (inactive) | > 100 µM (inactive) | > 100 µM (inactive) | > 100 µM (inactive) | > 100 µM (inactive) | > 100 µM (inactive) | > 100 µM (inactive) | > 100 µM (inactive)
COc1ccc2ccc3oc(=O)c(C)cc3c2c1 | > 100 µM (inactive) | > 100 µM (inactive) | > 100 µM (inactive) | > 100 µM (inactive) | > 100 µM (inactive) | > 10 µM (inactive) | > 100 µM (inactive) | 25.2 µM (inactive) | > 100 µM (inactive) | > 100 µM (inactive) | > 100 µM (inactive) | 39.6 µM (inactive) | > 100 µM (inactive) | > 100 µM (inactive) | > 100 µM (inactive) | > 100 µM (inactive) | > 100 µM (inactive) | > 100 µM (inactive) | > 100 µM (inactive) | > 100 µM (inactive)
CC/C=C/C(CC)C/C(C)=C\[C@]1(CC)C[C@H](CC)[C@H](CC(=O)O)OO1 (some centres undefined) | 3.42 µM (inactive) | 1.31 µM (inactive) | 1.64 µM (inactive) | 0.121 µM (active) | 0.178 µM (active) | – | 0.0315 µM (active) | 0.0157 µM (active) | 0.352 µM (active) | 1.77 µM (inactive) | 0.41 µM (active) | – | 1.29 µM (inactive) | 0.682 µM (active) | 1.59 µM (inactive) | 0.114 µM (active) | 0.0612 µM (active) | – | 1.36 µM (inactive) | 1.51 µM (inactive)
